Activity calls are given as the source filed them.
Key:
cells [1] = assay type: functional, cell-based
cells [2] = assay type: functional, cell-based; remark: listed apart in the source
[3] = target: Arf-GAP with SH3 domain, ANK repeat and PH domain-containing protein 1 (Homo sapiens, UniProt Q9ULH1); assay type: functional;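 further: biochemical fluorescence polarization dose–response screen measuring inhibition of ASAP1; ASAP1 GAP domain stimulating GTP hydrolysis by truncated human ARF1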
[4] = target: ADP-ribosylation factor GTPase-activating protein 1 (Rattus norvegicus, UniProt Q62848); experiment: Fluorescence polarization-based biochemical high throughput dose response screening assay to identify inhibitors of ADP-ribosylation factor GTPase activating protein 1 (ARFGAP1).; assay type: functional
Major prion protein = Major prion protein (Homo sapiens, UniProt P04156); assay type: functional, cell-based
cells [5] = experiment: cells
[6] = target: Fructose-bisphosphate aldolase (Mycobacterium tuberculosis, UniProt P9WQA3); experiment: Fluorescence-based biochemical high throughput dose response assay for inhibitors of the fructose-bisphosphate aldolase (FBA) of M. tuberculosis.; assay type: functional
[7] = target: Nuclear receptor subfamily 5 group A member 2 (Homo sapiens, UniProt O00482); assay type: functional, cell-based;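 further: HEK293T cells transfected with LRH-1 and a StAR promoter luciferase reporter; potency for inhibitors that lower LRH-1 driven reporter light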
Steroidogenic factor 1 = Steroidogenic factor 1 (Homo sapiens, UniProt Q13285); experiment: Counterscreen for inverse agonists of the liver receptor homolog-1 (LRH-1; NR5A2): Luminescence-based cell-based high throughput dose response assay to identify inverse agonists of the Steroidogenic Factor 1 Nuclear Receptor (SF1; NR5A1).; assay type: functional
[8] = StAR promoter reporter inhibition counter-screen, dose response, counter-screen for LRH-1 inverse agonist project, cell-based, luminescence, luciferase reporter (AID 651969); assay type: functional
[9] = target: SWI/SNF-related matrix-associated actin-dependent regulator of chromatin subfamily A member 2 (Homo sapiens, UniProt P51531); experiment: Luminescence-based cell-based high throughput dose response assay to identify activators of the function of SWI/SNF related, matrix associated, actin dependent regulator of chromatin, subfamily a, member 2 (SMARCA2, BRM).; assay type: functional
[10] = target: FAD-linked sulfhydryl oxidase ALR (Homo sapiens, UniProt P55789); experiment: inhibitors of human ALR sulfhydryl oxidase, dose response, biochemical, H2O2 detection, luminescence, cherry-pick (AID 493248)
[11] = Counterscreen for activators of the function of SWI/SNF related, matrix associated, actin dependent regulator of chromatin, subfamily a, member 2 (SMARCA2, BRM): Luminescence-based cell-based high throughput dose response assay to identify non-selective compounds using the VP16 reporter assay.; assay type: functional
cells [12] = assay type: functional, cell-based; remark: listed apart in the source
[13] = target: T1, Trace amine-associated receptor 1 (Homo sapiens, UniProt Q96RJ0); experiment: Fluorescence-based cell-based high throughput dose response assay to identify agonists of the human trace amine associated receptor 1 (TAAR1).; assay type: functional
T1 sequence (Q96RJ0 whole entry): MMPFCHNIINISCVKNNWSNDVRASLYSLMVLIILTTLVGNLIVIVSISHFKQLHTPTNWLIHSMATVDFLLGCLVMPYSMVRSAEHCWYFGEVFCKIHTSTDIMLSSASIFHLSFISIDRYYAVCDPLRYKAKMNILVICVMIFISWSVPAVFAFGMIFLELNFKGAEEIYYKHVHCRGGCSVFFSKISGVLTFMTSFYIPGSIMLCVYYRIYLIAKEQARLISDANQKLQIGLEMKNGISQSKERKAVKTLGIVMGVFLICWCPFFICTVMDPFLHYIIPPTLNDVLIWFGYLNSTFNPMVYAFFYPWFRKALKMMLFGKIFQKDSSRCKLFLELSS

cells [14] = assay type: functional, cell-based; remark: listed apart in the source
[15] = target: T1, Trace amine-associated receptor 1; experiment: Counterscreen for agonists of the human trace amine associated receptor 1 (hTAAR1): Fluorescence-based cell-based high throughput dose response assay to identify hTAAR1 agonist that also desensitize TAAR1 receptor response.; assay type: functional
HEK293 [16] = experiment: HEK cell cytotoxicity by LDH release, dose response, cytotoxicity control for IDE activator project, fluorescence, HEK cells (AID 588440); assay type: functional, cell-based; conditions: Homo sapiens;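 further: cytotoxicity by LDH release measuring loss of membrane integrity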
HEK293 [17] = experiment: optical interference in Abeta FP readout, dose response, artefact control for IDE activator project, biochemical, fluorescence polarization (AID 588442); assay type: functional, cell-based; conditions: Homo sapiens
Protein Tat = target: T2, Protein Tat (Human immunodeficiency virus type 1 group M subtype B (isolate HXB2)(HIV-1), UniProt P04608); assay type: functional;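 further: tat binding to TAR RNA read out by fluorescence polarization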
T2 sequence (P04608 whole entry): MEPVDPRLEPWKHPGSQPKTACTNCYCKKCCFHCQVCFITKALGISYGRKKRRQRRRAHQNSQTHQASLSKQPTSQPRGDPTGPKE

Insulin-degrading enzyme [18] = target: T3, Insulin-degrading enzyme (Homo sapiens, UniProt P14735); experiment: activators of recombinant IDE enzyme, dose response, counter-screen for IDE activator project, biochemical, fluorescence polarization (AID 588681)
T3 sequence (P14735 whole entry): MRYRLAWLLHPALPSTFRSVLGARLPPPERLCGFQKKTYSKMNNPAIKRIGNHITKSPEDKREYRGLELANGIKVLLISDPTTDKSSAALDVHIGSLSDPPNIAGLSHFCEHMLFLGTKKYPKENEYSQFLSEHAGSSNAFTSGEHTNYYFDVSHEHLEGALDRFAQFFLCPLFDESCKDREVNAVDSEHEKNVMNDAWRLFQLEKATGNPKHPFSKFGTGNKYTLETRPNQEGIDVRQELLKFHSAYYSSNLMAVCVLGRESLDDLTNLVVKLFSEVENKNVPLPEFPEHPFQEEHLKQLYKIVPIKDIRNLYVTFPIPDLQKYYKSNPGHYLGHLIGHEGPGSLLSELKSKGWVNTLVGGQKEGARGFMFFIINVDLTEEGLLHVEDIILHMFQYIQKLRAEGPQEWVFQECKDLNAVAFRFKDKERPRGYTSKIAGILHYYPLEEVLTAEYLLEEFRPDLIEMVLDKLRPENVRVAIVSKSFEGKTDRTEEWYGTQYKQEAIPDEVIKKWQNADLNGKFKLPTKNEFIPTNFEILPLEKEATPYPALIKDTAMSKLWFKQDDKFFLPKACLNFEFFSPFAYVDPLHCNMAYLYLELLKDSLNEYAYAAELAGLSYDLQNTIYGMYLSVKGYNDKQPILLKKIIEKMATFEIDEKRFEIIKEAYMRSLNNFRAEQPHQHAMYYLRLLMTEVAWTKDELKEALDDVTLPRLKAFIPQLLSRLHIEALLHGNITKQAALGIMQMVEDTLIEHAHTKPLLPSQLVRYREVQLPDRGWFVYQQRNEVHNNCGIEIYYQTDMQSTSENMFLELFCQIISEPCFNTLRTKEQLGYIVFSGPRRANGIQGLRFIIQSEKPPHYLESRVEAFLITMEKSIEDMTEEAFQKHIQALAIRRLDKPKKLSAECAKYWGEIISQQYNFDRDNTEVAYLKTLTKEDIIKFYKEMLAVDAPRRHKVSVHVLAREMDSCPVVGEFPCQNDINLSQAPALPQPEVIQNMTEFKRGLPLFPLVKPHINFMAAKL

Estrogen receptor beta = Estrogen receptor beta (Homo sapiens, UniProt Q92731); experiment: ERβ–SRC-3 coactivator interaction inhibitors, confirmation, orthogonal assay, biochemical, ELISA, streptavidin-HRP readout (AID 1060)
[19] = THP-1 cell cytotoxicity, dose response, cytotoxicity control for Vif-APOBEC3G degradation inhibitor project, THP-1 cells (AID 1117359); assay type: functional; conditions: Human immunodeficiency virus 1, THP-1
Insulin-degrading enzyme [20] = target: T3, Insulin-degrading enzyme; experiment: activators of endogenous IDE in HEK cells, dose response, cell-based, fluorescence polarization (AID 588439); assay type: functional

Question: For `Cc1ccc2nc(SCC(=O)N3CCCCC3)nc(=O)n2c1`, which EC50 (cells [1]) is on record?
Answer: > 350 µM (not active)

Question: And the EC50 (cells [2])?
Answer: > 350 µM (not active)

Question: And the IC50 [3]?
Answer: 45.9 µM (inactive)

Question: What about the IC50 [4] of the same molecule?
Answer: 32 µM (inactive)

Question: What does the source list for `COC(=O)c1sc(N=C(S)NNC(=O)c2c(Br)c(C)nn2C)c(C(=O)OC)c1C`?
Answer: IC50 (Major prion protein): 1.16 µM (active); IC50 (cells [5]): > 138 µM (inactive)

Question: With `CCOC(=O)c1cnc2ccc(C)cn2c1=O` as the molecule, how does the IC50 [6] read?
Answer: 1.23 µM (active)

Question: With `O=C(COc1ccc(S(=O)(=O)N2CCCC2)cc1Cl)Nc1ccc2c(c1)OCO2` as the molecule, how does the IC50 [7] read?
Answer: 35.9 µM (inactive)

Question: And the IC50 (Steroidogenic factor 1)?
Answer: 9.54 µM (active)

Question: And the IC50 [8]?
Answer: 35.9 µM (inactive)

Question: With `Cc1ccc(O)c(CNc2nc3ccccc3n2C)c1` as the molecule, how does the EC50 [9] read?
Answer: > 91.2 µM (inactive)

Question: What about the AC50 [10] of the same molecule?
Answer: 9.83 µM (active)

Question: What about the EC50 [11] of the same molecule?
Answer: > 91.2 µM (inactive)

Question: Which EC50 (cells [12]) does the source give for `COc1ccc2c(c1)C(SCC(=O)NCCc1ccccc1)CC(C)(C)O2` (configuration not stated) here?
Answer: > 29.9 µM (inactive)

Question: And the EC50 [13]?
Answer: 1.04 µM (active)

Question: And the IC50 (cells [14])?
Answer: > 29.9 µM (inactive)

Question: And the IC50 [15]?
Answer: 2.31 µM (active)

Question: With `COc1ccc(-n2nnnc2SCC(=O)c2ccc3c(c2)OCCO3)c(OC)c1` as the molecule, how does the IC50 [3] read?
Answer: 12.6 µM (inactive)

Question: And the IC50 [4]?
Answer: 17.7 µM (inactive)

Question: With `CNc1ncc(C(=O)c2ccc(Cl)cc2)s1` as the molecule, how does the IC50 (Major prion protein) read?
Answer: 6.92 µM (active)

Question: What about the IC50 (cells [5]) of the same molecule?
Answer: > 138 µM (inactive)

Question: For `COc1cc(C2Nc3cccc4cccc(c34)N2)cc(OC)c1O`, which IC50 (HEK293 [16]) is on record?
Answer: > 89.2 µM (inactive)

Question: And the EC50 (HEK293 [17])?
Answer: > 55.9 µM (inactive)

Question: And the IC50 (Protein Tat)?
Answer: 13.1 µM (inconclusive)

Question: What about the EC50 (Insulin-degrading enzyme [18]) of the same molecule?
Answer: > 54.7 µM (inactive)

Question: And the IC50 (Estrogen receptor beta)?
Answer: 5.04 µM (not active)

Question: What about the CC50 [19] of the same molecule?
Answer: 2.1 µM (active)

Question: And the EC50 (Insulin-degrading enzyme [20])?
Answer: > 54.7 µM (inactive)

Question: For `O=C(CSC1=NS(=O)(=O)c2ccccc2N1)NCCc1ccccc1`, which EC50 (cells [12]) is on record?
Answer: > 29.9 µM (inactive)

Question: And the EC50 [13]?
Answer: 3.33 µM (active)

Question: What about the IC50 (cells [14]) of the same molecule?
Answer: > 29.9 µM (inactive)

Question: And the IC50 [15]?
Answer: 6.94 µM (active)

Source: ChEMBL document CHEMBL1201862, “PubChem BioAssay data set” (2004)
